The values that follow come from patent US8613914B2, “Peptidomimetic sulfamide compounds and antiviral uses thereof” (Novartis AG, priority 2009, dated 2013).

SMILES strings stand for the structures.

Sequence of HCV NS3-4A serine protease (full-length NS3-4A protein) (P26664 1027-1657): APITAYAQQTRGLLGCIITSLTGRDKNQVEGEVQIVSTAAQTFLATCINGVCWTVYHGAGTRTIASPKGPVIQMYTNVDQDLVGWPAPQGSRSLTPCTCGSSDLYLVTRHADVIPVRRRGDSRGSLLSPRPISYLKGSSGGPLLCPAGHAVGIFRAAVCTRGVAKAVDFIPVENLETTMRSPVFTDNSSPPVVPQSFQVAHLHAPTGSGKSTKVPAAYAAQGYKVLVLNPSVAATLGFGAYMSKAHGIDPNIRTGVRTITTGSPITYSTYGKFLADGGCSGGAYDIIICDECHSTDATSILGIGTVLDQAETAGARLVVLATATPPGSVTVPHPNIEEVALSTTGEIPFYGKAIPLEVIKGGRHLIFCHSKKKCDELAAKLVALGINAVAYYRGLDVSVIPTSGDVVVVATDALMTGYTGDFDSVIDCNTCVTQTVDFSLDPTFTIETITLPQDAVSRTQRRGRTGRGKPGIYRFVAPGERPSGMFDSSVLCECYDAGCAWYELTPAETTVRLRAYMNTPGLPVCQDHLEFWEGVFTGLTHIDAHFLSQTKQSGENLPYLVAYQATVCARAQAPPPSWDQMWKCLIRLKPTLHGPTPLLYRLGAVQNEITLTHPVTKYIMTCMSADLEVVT
Sequence of HCV NS3-4A serine protease (full-length NS3-4A protein) (P26664 1658-1711 partner): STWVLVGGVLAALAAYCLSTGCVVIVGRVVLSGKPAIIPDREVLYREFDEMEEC

This assay concerns the target HCV NS3-4A serine protease (full-length NS3-4A protein) (Hepatitis C virus genotype 1a (isolate 1) (HCV), UniProt P26664). Nature of the assay: HCV NS3-4A protease assay. As to conditions: strain HCV-1, fluorogenic peptide substrate, read-out: Protease assay Ex. 12 IC50. The assay is classed as biochemical, HCV genotype 1a. The method, then:
The inhibitory activity of certain compounds of Table A against HCV NS3-4A serine protease is determined in a homogenous assay using the full-length NS3-4A protein (genotype 1a, strain HCV-1) and a commercially available internally-quenched fluorogenic peptide substrate as described by Taliani, M., et al. 1996 Anal. Biochem. 240:60-67, which is incorporated by reference in its entirety.
By IC50 is commonly meant the concentration needed to halve the response being measured. For `C=C[C@@H]1C[C@]1(NC(=O)[C@@H]1C[C@@]2(CN1C(=O)[C@@H](NC(=O)[C@@H](NC(=O)[C@@H]1CCCCN1C(C)C)C1CCOCC1)C(C)(C)C)C(C)(C)C21CCC1)C(=O)NS(=O)(=O)N1CCCC1` [Compound 44, (5R,8S)-7-[(2S)-2-{[(2S)-2-({[(2S)-1-isopropylpiperidin-2-yl]carbonyl}amino)-2-(tetrahydro-2H-pyran-4-yl)acetyl]amino}-3,3-dimethylbutanoyl]-10,10-dimethyl-N-{(1R,2S)-1-[(pyrrolidin-1-ylsulfonyl)carbamoyl]-2-vinylcyclopropyl}-7-azadispiro[3.0.4.1]decane-8-carboxamide], the IC50 is 15 nM.
Take `C=C[C@@H]1C[C@]1(NC(=O)[C@@H]1C[C@@]2(CN1C(=O)[C@@H](NC(=O)[C@@H](NC(=O)[C@@H]1CCCCN1C(C)C)C1CCCCC1)C(C)(C)C)C(C)(C)C21CCC1)C(=O)NS(=O)(=O)N1CC[C@@H](F)C1` [Compound 45, (5R,8S)-7-[(2S)-2-{[(2S)-2-cyclohexyl-2-({[(2S)-1-isopropylpiperidin-2-yl]carbonyl}amino)acetyl]amino}-3,3-dimethylbutanoyl]-N-[(1R,2S)-1-({[(3R)-3-fluoropyrrolidin-1-yl]sulfonyl}carbamoyl)-2-vinylcyclopropyl]-10,10-dimethyl-7-azadispiro[3.0.4.1]decane-8-carboxamide]: the IC50 came to 1 nM.
As for `C=C[C@@H]1C[C@]1(NC(=O)[C@@H]1C[C@@]2(CN1C(=O)[C@@H](NC(=O)[C@@H](NC(=O)[C@@H]1CCCCN1C(C)C)C1CCCCC1)C(C)(C)C)C(C)(C)C21CCC1)C(=O)NS(=O)(=O)N1CC[C@H](F)C1` [Compound 46, (5R,8S)-7-[(2S)-2-{[(2S)-2-cyclohexyl-2-({[(2S)-1-isopropylpiperidin-2-yl]carbonyl}amino)acetyl]amino}-3,3-dimethylbutanoyl]-N-[(1R,2S)-1-({[(3S)-3-fluoropyrrolidin-1-yl]sulfonyl}carbamoyl)-2-vinylcyclopropyl]-10,10-dimethyl-7-azadispiro[3.0.4.1]decane-8-carboxamide], the IC50 was 2 nM.
On to `C=C[C@@H]1C[C@]1(NC(=O)[C@@H]1C[C@@]2(CN1C(=O)[C@@H](NC(=O)[C@@H](NC(=O)[C@H]1CCCCN1C(C)C)C1CCCCC1)C(C)(C)C)C(C)(C)C21CCC1)C(=O)NS(=O)(=O)N1CCCC1` [Compound 47, (5R,8S)-7-[(2S)-2-{[(2S)-2-cyclohexyl-2-({[(2R)-1-isopropylpiperidin-2-yl]carbonyl}amino)acetyl]amino}-3,3-dimethylbutanoyl]-10,10-dimethyl-N-{(1R,2S)-1-[(pyrrolidin-1-ylsulfonyl)carbamoyl]-2-vinylcyclopropyl}-7-azadispiro[3.0.4.1]decane-8-carboxamide], for which the IC50 was found to be 4.8 nM.
Consider `C=C[C@@H]1C[C@]1(NC(=O)[C@@H]1C[C@@]2(CN1C(=O)[C@@H](NC(=O)[C@@H](NC(=O)[C@H]1CCCCN1C)C1CCCCC1)C(C)(C)C)C(C)(C)C21CCC1)C(=O)NS(=O)(=O)N1CCCC1` [Compound 48, (5R,8S)-7-[(2S)-2-{[(2S)-2-cyclohexyl-2-({[(2R)-1-methylpiperidin-2-yl]carbonyl}amino)acetyl]amino}-3,3-dimethylbutanoyl]-10,10-dimethyl-N-{(1R,2S)-1-[(pyrrolidin-1-ylsulfonyl)carbamoyl]-2-vinylcyclopropyl}-7-azadispiro[3.0.4.1]decane-8-carboxamide], for which the IC50 was 0.9 nM.
Next, `C=C[C@@H]1C[C@]1(NC(=O)[C@@H]1C[C@@]2(CN1C(=O)[C@@H](NC(=O)[C@@H](NC(=O)[C@@H]1CCCCN1C(C)C)C1CCCCC1)C(C)(C)C)C(C)(C)C21CCC1)C(=O)NS(=O)(=O)N(C)C1CCC1` [Compound 49, (5R,8S)-N-[(1R,2S)-1-({[cyclobutyl(methyl)amino]sulfonyl}carbamoyl)-2-vinylcyclopropyl]-7-[(2S)-2-{[(2S)-2-cyclohexyl-2-({[(2S)-1-isopropylpiperidin-2-yl]carbonyl}amino)acetyl]amino}-3,3-dimethylbutanoyl]-10,10-dimethyl-7-azadispiro[3.0.4.1]decane-8-carboxamide]: 3.3 nM; `C=C[C@@H]1C[C@]1(NC(=O)[C@@H]1C[C@@]2(CN1C(=O)[C@@H](NC(=O)[C@@H](NC(=O)[C@@H]1CCCCN1C(C)C)C1CCCCC1)C(C)(C)C)C(C)(C)C21CCC1)C(=O)NS(=O)(=O)N(C)CC1CC1` [Compound 50, (5R,8S)-7-[(2S)-2-{[(2S)-2-cyclohexyl-2-({[(2S)-1-isopropylpiperidin-2-yl]carbonyl}amino)acetyl]amino}-3,3-dimethylbutanoyl]-N-[(1R,2S)-1-({[(cyclopropylmethyl)(methyl)amino]sulfonyl}carbamoyl)-2-vinylcyclopropyl]-10,10-dimethyl-7-azadispiro[3.0.4.1]decane-8-carboxamide]: 3.8 nM; `C=C[C@@H]1C[C@]1(NC(=O)[C@@H]1C[C@@]2(CN1C(=O)[C@@H](NC(=O)C(Nc1cccnc1)C(C)(C)C)C(C)(C)C)C(C)(C)C21CCC1)C(=O)NS(=O)(=O)N1CCCC1` (stereo partly drawn) [Compound 51, (5R,8S)-7-[(2S)-2-{[3,3-dimethyl-2-(pyridin-3-ylamino)butanoyl]amino}-3,3-dimethylbutanoyl]-10,10-dimethyl-N-{(1R,2S)-1-[(pyrrolidin-1-ylsulfonyl)carbamoyl]-2-vinylcyclopropyl}-7-azadispiro[3.0.4.1]decane-8-carboxamide]: 1150 nM.
As to `C=C[C@@H]1C[C@]1(NC(=O)[C@@H]1C[C@@]2(CN1C(=O)[C@@H](NC(=O)[C@@H](NC(=O)[C@@H]1CCCCN1C(C)C)C1CCCCC1)C(C)(C)C)C(C)(C)C21CCC1)C(=O)NS(=O)(=O)N(C)C1CC1` [Compound 53, (5R,8S)-7-[(2S)-2-{[(2S)-2-cyclohexyl-2-({[(2S)-1-isopropylpiperidin-2-yl]carbonyl}amino)acetyl]amino}-3,3-dimethylbutanoyl]-N-[(1R,2S)-1-({[cyclopropyl(methyl)amino]sulfonyl}carbamoyl)-2-vinylcyclopropyl]-10,10-dimethyl-7-azadispiro[3.0.4.1]decane-8-carboxamide], the IC50 was determined as 1.7 nM.
Regarding `C=C[C@@H]1C[C@]1(NC(=O)[C@@H]1C[C@@]2(CN1C(=O)[C@@H](NC(=O)[C@@H](NC(=O)[C@@H]1CCCCN1C(C)C)C1CCCCC1)C(C)(C)C)C(C)(C)C21CCC1)C(=O)NS(=O)(=O)N(C)OC` [Compound 55, (5R,8S)-7-[(2S)-2-{[(2S)-2-cyclohexyl-2-({[(2S)-1-isopropylpiperidin-2-yl]carbonyl}amino)acetyl]amino}-3,3-dimethylbutanoyl]-N-[(1R,2S)-1-({[methoxy(methyl)amino]sulfonyl}carbamoyl)-2-vinylcyclopropyl]-10,10-dimethyl-7-azadispiro[3.0.4.1]decane-8-carboxamide], the IC50 worked out at 1.4 nM.
Then `C=C[C@@H]1C[C@]1(NC(=O)[C@@H]1C[C@@]2(CN1C(=O)[C@@H](NC(=O)[C@@H](NC(=O)[C@@H]1CCCCN1C(C)C)C1CCCCC1)C(C)(C)C)C(C)(C)C21CCC1)C(=O)NS(=O)(=O)N(C)CCOC` [Compound 56, (5R,8S)-7-[(2S)-2-{[(2S)-2-cyclohexyl-2-({[(2S)-1-isopropylpiperidin-2-yl]carbonyl}amino)acetyl]amino}-3,3-dimethylbutanoyl]-N-[(1R,2S)-1-({[(2-methoxyethyl)(methyl)amino]sulfonyl}carbamoyl)-2-vinylcyclopropyl]-10,10-dimethyl-7-azadispiro[3.0.4.1]decane-8-carboxamide], with 8 nM; and `C=C[C@@H]1C[C@]1(NC(=O)[C@@H]1C[C@@]2(CN1C(=O)[C@@H](NC(=O)[C@@H](NC(=O)[C@@H]1CCCCN1C(C)C)C1CCCCC1)C(C)(C)C)C(C)(C)C21CCC1)C(=O)NS(=O)(=O)NC1CCC1` [Compound 57, (5R,8S)-N-[(1R,2S)-1-{[(cyclobutylamino)sulfonyl]carbamoyl}-2-vinylcyclopropyl]-7-[(2S)-2-{[(2S)-2-cyclohexyl-2-({[(2S)-1-isopropylpiperidin-2-yl]carbonyl}amino)acetyl]amino}-3,3-dimethylbutanoyl]-10,10-dimethyl-7-azadispiro[3.0.4.1]decane-8-carboxamide], with 6.5 nM.
Take `C=C[C@@H]1C[C@]1(NC(=O)[C@@H]1C[C@@]2(CN1C(=O)[C@@H](NC(=O)[C@@H](NC(=O)[C@@H]1CCCCN1C(C)C)C1CCCC1)C(C)(C)C)C(C)(C)C21CCC1)C(=O)NS(=O)(=O)N1CCCC1` [Compound 58, (5R,8S)-7-[(2S)-2-{[(2S)-2-cyclopentyl-2-({[(2S)-1-isopropylpiperidin-2-yl]carbonyl}amino)acetyl]amino}-3,3-dimethylbutanoyl]-10,10-dimethyl-N-{(1R,2S)-1-[(pyrrolidin-1-ylsulfonyl)carbamoyl]-2-vinylcyclopropyl}-7-azadispiro[3.0.4.1]decane-8-carboxamide]: the IC50 was 3.5 nM.
As to `C=C[C@@H]1C[C@]1(NC(=O)[C@@H]1C[C@@]2(CN1C(=O)[C@@H](NC(=O)[C@@H](NC(=O)[C@@H]1CCCN1C(C)C)C1CCCC1)C(C)(C)C)C(C)(C)C21CCC1)C(=O)NS(=O)(=O)N1CCCC1` [Compound 59, (5R,8S)-7-[(2S)-2-{[(2S)-2-cyclopentyl-2-({[(2S)-1-isopropylpyrrolidin-2-yl]carbonyl}amino)acetyl]amino}-3,3-dimethylbutanoyl]-10,10-dimethyl-N-{(1R,2S)-1-[(pyrrolidin-1-ylsulfonyl)carbamoyl]-2-vinylcyclopropyl}-7-azadispiro[3.0.4.1]decane-8-carboxamide], the IC50 came to 3.5 nM.
